Assay results as given in patent US20200405697A1, “Antitumor Agent” (Taiho Pharmaceutical Co., Ltd, priority 2017, published 2020).

Biological target: T1, human RNR (histidine tagged human M1 and human M2 proteins) (Homo sapiens, UniProt P23921)
T1 construct: made in house; host or cells: Escherichia coli
T1 sequence (P23921 1-792): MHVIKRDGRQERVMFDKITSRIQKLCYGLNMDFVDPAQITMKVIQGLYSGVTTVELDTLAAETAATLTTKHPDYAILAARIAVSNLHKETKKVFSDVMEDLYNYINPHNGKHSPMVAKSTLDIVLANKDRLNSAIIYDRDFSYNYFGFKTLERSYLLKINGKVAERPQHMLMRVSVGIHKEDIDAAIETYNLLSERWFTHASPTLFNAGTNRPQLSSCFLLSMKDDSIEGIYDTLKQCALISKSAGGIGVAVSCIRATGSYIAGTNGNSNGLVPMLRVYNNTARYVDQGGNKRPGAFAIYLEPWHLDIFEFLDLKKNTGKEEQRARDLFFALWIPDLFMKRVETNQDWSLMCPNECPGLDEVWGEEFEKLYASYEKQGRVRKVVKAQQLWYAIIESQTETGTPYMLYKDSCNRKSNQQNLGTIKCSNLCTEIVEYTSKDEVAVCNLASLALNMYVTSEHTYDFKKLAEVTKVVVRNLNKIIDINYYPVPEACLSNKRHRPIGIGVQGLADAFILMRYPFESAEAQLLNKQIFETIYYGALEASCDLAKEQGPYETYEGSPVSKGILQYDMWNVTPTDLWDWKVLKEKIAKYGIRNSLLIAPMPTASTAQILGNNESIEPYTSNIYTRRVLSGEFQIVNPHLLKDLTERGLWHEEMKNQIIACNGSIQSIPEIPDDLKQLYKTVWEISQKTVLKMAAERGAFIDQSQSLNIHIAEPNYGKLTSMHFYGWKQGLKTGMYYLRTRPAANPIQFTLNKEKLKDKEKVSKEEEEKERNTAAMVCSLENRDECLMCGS
Assay: Human RNR inhibition effect (dCDP formation from CDP)
Assay type: biochemical
Conditions: 10 μM CDP, 37° C. for 30 minutes, read-out: RNR inhibitory activity IC50
Experimental: The inhibitory activity against the ribonucleotide reduction reaction (RNR inhibitory activity) of the Example compound was determined by measuring the formation of deoxycytidine diphosphate (hereinafter referred to as dCDP) from cytidine diphosphate (hereinafter referred to as CDP) by the following method.
Human M1 subunit (isoform 1, GenBank accession No: NM_001033), to which a histidine tag is fused at the amino terminus, and human M2 subunit (mutant lacking amino terminal 59 amino acids of isoform 2, GenBank accession No: NM_001034), to which a histidine tag is fused, were overexpressed in Escherichia coli and were solubilized after collection, and histidine tagged human M1 and histidine tagged human M2 proteins were purified on a nickel chelate column. A mixture of the histidine tagged human M1 and histidine tagged human M2 proteins was used as RNR in the ribonucleotide reduction reaction. [to]
First, Example compounds were serially diluted with DMSO. Next, human M1 protein and human M2 protein were added to a 0.02% aqueous albumin solution derived from fetal bovine serum, a DMSO solution of the Example compound or the control DMSO solution (final concentration of DMSO was 1%) was added, and the mixture was allowed to stand for 20 minutes. Thereafter, the reaction buffer [50 mM HEPES buffer (pH 7.2) at the final concentration, 4 mM magnesium acetate at the final concentration, 100 mM potassium chloride at the final concentration, 6 mM dithiothreitol at the final concentration, 2 mM adenosine triphosphate at the final concentration, 0.24 mM nicotinamide adenine dinucleotide phosphate at final concentration] and 10 μM CDP at the final concentration were added and incubated at 37° C. for 30 minutes to perform ribonucleotide reduction reaction. Immediately after the reaction, the reaction was stopped by heating at 100° C. for 15 minutes, followed by centrifugation at 10,000 rpm for 10 minutes. After the centrifugation, a portion (5 μL) of the resulting supernatant was analyzed with a high performance liquid chromatography (Shimadzu Corporation, Prominence) using Shim-pack XR-ODS (manufactured by Shimadzu GLC Co., 3.0×100 mm).

| IC50 [µM] | Structure (SMILES) |
| --- | --- |
| 0.11 | C[C@H](c1c(F)ccc2ccccc12)[C@H](NS(=O)(=O)c1ccc(Cl)cc1C(N)=O)c1n[nH]c(=O)o1 [Example 6, 5-chloro-2-(N-((1S,2R)-2-(2-fluoronaphthalen-1-yl)-1-(5-oxo-4,5-dihydro-1,3,4-oxadiazol-2-yl)propyl)sulfamoyl)benzamide] |
| 0.45 | Cc1cc(F)cc([C@@H](C)[C@H](NS(=O)(=O)c2ccc(Cl)cc2C(N)=O)c2n[nH]c(=O)o2)c1C [Example 7, 15-chloro-2-(N-((1S,2R)-2-(5-fluoro-2,3-dimethylphenyl)-1-(5-oxo-4,5-dihydro-1,3,4-oxadiazol-2-yl)propyl)sulfamoyl)benzamide] |
| 0.6 | C[C@H](c1cc(F)cc2ccccc12)[C@H](NS(=O)(=O)c1ccc(Cl)cc1C(N)=O)c1n[nH]c(=O)o1 [Example 9, 5-chloro-2-(N-((1S,2R)-2-(3-fluoronaphthalen-1-yl)-1-(5-oxo-4,5-dihydro-1,3,4-oxadiazol-2-yl)propyl)sulfamoyl)benzamide] |
| 0.14 | Cc1ccc(S(=O)(=O)N[C@H](c2n[nH]c(=O)o2)[C@H](C)c2c(F)ccc(C)c2C)c(C(N)=O)c1 [Example 10, 2-(N-((1S,2R)-2-(3-6-fluoro-2,3-dimethylphenyl)-1-(5-oxo-4,5-dihydro-1,3,4-oxadiazol-2-yl)propyl)sulfamoyl)-5-methylbenzamide] |
| 0.17 | Cc1ccc(S(=O)(=O)N[C@H](c2n[nH]c(=O)o2)[C@H](C)c2c(F)ccc3ccccc23)c(C(N)=O)c1 [Example 12, 2-(N-((1S,2R)-2-(2-Fluoronaphthalen-1-yl)-1-(5-oxo-4,5-dihydro-1,3,4-oxadiazol-2-yl)propyl)sulfamoyl)-5-methylbenzamide] |
| 0.14 | Cc1cc(F)c(F)c([C@@H](C)[C@H](NS(=O)(=O)c2ccc(Cl)cc2C(N)=O)c2n[nH]c(=O)o2)c1C [Example 13, 5-chloro-2-(N-((1S,2R)-2-(2,3-difluoro-5,6-dimethylphenyl)-1-(5-oxo-4,5-dihydro-1,3,4-oxadiazol-2-yl)propyl)sulfamoyl)benzamide] |
| 0.1 | C[C@H](c1c(F)ccc2ccccc12)[C@H](NS(=O)(=O)c1ccc(Br)cc1C(N)=O)c1n[nH]c(=O)o1 [Example 15, 5-bromo-2-(N-((1S,2R)-2-(2-fluoronaphthalen-1-yl)-1-(5-oxo-4,5-dihydro-1,3,4-oxadiazol-2-yl)propyl)sulfamoyl)benzamide] |
| 0.13 | Cc1ccc(F)c([C@@H](C)[C@H](NS(=O)(=O)c2ccc(C3CC3)cc2C(N)=O)c2n[nH]c(=O)o2)c1C [Example 16, 5-Cyclopropyl-2-(N-((1S,2R)-2-(6-Fluoro-2,3-dimethylphenyl)-1-(5-oxo-4,5-dihydro-1,3,4-oxadiazol-2-yl)propyl)sulfamoyl)benzamide] |
| 0.5 | Cc1ccc(F)c([C@@H](C)[C@H](NS(=O)(=O)c2ccc(Cl)cc2C(N)=O)c2n[nH]c(=O)o2)c1Cl [Example 17, 5-chloro-2-(N-((1S)-2-(2-chloro-6-fluoro-3-methylphenyl)-1-(5-oxo-4,5-dihydro-1,3,4-oxadiazol-2-yl)propyl)sulfamoyl)benzamide] |
| 0.13 | CCc1ccc(S(=O)(=O)N[C@H](c2n[nH]c(=O)o2)[C@H](C)c2c(F)ccc(C)c2C)c(C(N)=O)c1 [Example 18, 5-Ethyl-2-(N-((1S,2R)-2-(6-fluoro-2,3-dimethylphenyl)-1-(5-oxo-4,5-dihydro-1,3,4-oxadiazol-2-yl)propyl)sulfamoyl)benzamide] |
| 0.19 | Cc1ccc(F)c([C@@H](C)[C@H](NS(=O)(=O)c2ccc(Cl)nc2C(N)=O)c2n[nH]c(=O)o2)c1C [Example 19, 6-Chloro-3-(N-((1S,2R)-2-(6-fluoro-2,3-dimethylphenyl)-1-(5-oxo-4,5-dihydro-1,3,4-oxadiazol-2-yl)propyl)sulfamoyl)picolinamide] |
| 0.26 | Cc1ccc(F)c([C@@H](C)[C@H](NS(=O)(=O)c2ccccc2C(N)=O)c2n[nH]c(=O)o2)c1C [Example 20, 2-(N-((1S,2R)-2-(6-fluoro-2,3-dimethylphenyl)-1-(5-oxo-4,5-dihydro-1,3,4-oxadiazol-2-yl)propyl)sulfamoyl)benzamide] |
| 0.24 | Cc1ccc(F)c([C@@H](C)[C@H](NS(=O)(=O)c2ccc(Cl)cc2C(N)=O)c2n[nH]c(=O)o2)c1 [Example 21, 5-chloro-2-(N-((1S,2R)-2-(2-fluoro-5-methylphenyl)-1-(5-oxo-4,5-dihydro-1,3,4-oxadiazol-2-yl)propyl)sulfamoyl)benzamide] |
| 0.34 | Cc1cccc(F)c1[C@@H](C)[C@H](NS(=O)(=O)c1ccc(Cl)cc1C(N)=O)c1n[nH]c(=O)o1 [Example 22, 5-chloro-2-(N-((1S,2R)-2-(2-fluoro-6-methylphenyl)-1-(5-oxo-4,5-dihydro-1,3,4-oxadiazol-2-yl)propyl)sulfamoyl)benzamide] |
| 0.74 | Cc1cccc(F)c1[C@H](C)[C@H](NS(=O)(=O)c1ccc(Cl)cc1C(N)=O)c1n[nH]c(=O)o1 [Example 23, 5-chloro-2-(N-((1S,2S)-2-(2-fluoro-6-methylphenyl)-1-(5-oxo-4,5-dihydro-1,3,4-oxadiazol-2-yl)propyl)sulfamoyl)benzainide] |
| 0.15 | Cc1c(Cl)ccc(F)c1[C@@H](C)[C@H](NS(=O)(=O)c1ccc(Br)cc1C(N)=O)c1n[nH]c(=O)o1 [Example 25, 5-bromo-2-(N-((1S,2R)-2-(3-chloro-6-fluoro-2-methylphenyl)-1-(5-oxo-4,5-dihydro-1,3,4-oxadiazol-2-yl)propyl)sulfamoyl)benzamide] |
| 0.16 | Cc1c(C2CC2)ccc(F)c1[C@@H](C)[C@H](NS(=O)(=O)c1ccc(Cl)cc1C(N)=O)c1n[nH]c(=O)o1 [Example 26, 5-chloro-2-(N-((1S,2R)-2-(3-cyclopropyl-6-fluoro-2-methylphenyl)-1-(5-oxo-4,5-dihydro-1,3,4-oxadiazol-2-yl)propyl)sulfamoyl)benzamide] |
| 0.55 | Cc1c(C(F)(F)F)ccc(F)c1[C@@H](C)[C@H](NS(=O)(=O)c1ccc(Cl)cc1C(N)=O)c1n[nH]c(=O)o1 [Example 27, 5-chloro-2-(N-((1S,2R)-2-(6-fluoro-2-methyl-3-(trifluoromethyl)phenyl)-1-(5-oxo-4,5-dihydro-1,3,4-oxadiazol-2-yl)propyl)sulfamoyl)benzamide] |
| 0.5 | Cc1c(F)ccc(F)c1[C@@H](C)[C@H](NS(=O)(=O)c1ccc(Cl)cc1C(N)=O)c1n[nH]c(=O)o1 [Example 28, 5-chloro-2-(N-((1S,2R)-2-(3,6-difluoro-2-methylphenyl)-1-(5-oxo-4,5-dihydro-1,3,4-oxadiazol-2-yl)propyl)sulfamoyl)benzamide] |
| 0.15 | Cc1c(Br)ccc(F)c1[C@@H](C)[C@H](NS(=O)(=O)c1ccc(Cl)cc1C(N)=O)c1n[nH]c(=O)o1 [Example 30, 2-(N-((1S,2R)-2-(3-bromo-6-fluoro-2-methylphenyl)-1-(5-oxo-4,5-dihydro-1,3,4-oxadiazol-2-yl)propyl)sulfamoyl)-5-chlorobenzamide] |
| 0.1 | Cc1ccc(F)c([C@@H](C)[C@H](NS(=O)(=O)c2ccc(Cl)c(C(N)=O)n2)c2n[nH]c(=O)o2)c1C [Example 31, 3-chloro-6-(N-((1S,2R)-2-(6-fluoro-2,3-dimethylphenyl)-1-(5-oxo-4,5-dihydro-1,3,4-oxadiazol-2-yl)propyl)sulfamoyl)picolinamide] |
| 0.79 | Cc1ccc(F)c([C@H](C)[C@H](NS(=O)(=O)c2ccc(Cl)cc2C(N)=O)c2n[nH]c(=O)o2)c1C [Example 32, 5-chloro-2-(N-((1S,2S)-2-(6-fluoro-2,3-dimethylphenyl)-1-(5-oxo-4,5-dihydro-1,3,4-oxadiazol-2-yl)propyl)sulfamoyl)benzamide] |
